{"source": "patent US20240091244A1", "about": "“PHARMACEUTICAL COMPOSITIONS COMPRISING PICROSIDE” (SAVA HEALTHCARE LIMITED, priority 2021, published 2024)", "molecules": {"B1": {"name": "G-CSF: Granulocyte Colony Stimulating Factor, FDA approved drug for treating severe neutropenia; comparator (protein, UniProt P09919 31-207, looked up)", "Granulocyte …": "TPLGPASSLPQSFLLKCLEQVRKIQGDGAALQEKLVSECATYKLCHPEELVLLGHSLGIPWAPLSSCPSQALQLAGCLSQLHSGLFLYQGLLQALEGISPELGPTLDTLQLDVADFATTIWQQMEELGMAPALQPTQGAMPAFASAFQRRAGGVLVASHLQSFLEVSYRVLRHLAQP"}}, "key": {"[1]": {"system": "mice with cyclophosphamide induced neutropenia", "test": "Comparative administration of Picroside I and G-CSF to mice with cyclophosphamide induced neutropenia", "format": "in vivo, Swiss albino mice", "settings": "for % Neutrophil (day 0): day 0, before cyclophosphamide (baseline of the group); for % Neutrophil (day 3): day 3 after cyclophosphamide, before treatment; for % Neutrophil (day 10): Picroside I 1 mg/mouse/day, G-CSF 2 μg/mouse/day", "description": "(§1) In-house bred Swiss albino mice were housed under standard laboratory conditions, such as, air-conditioned with adequate fresh air supply (air changes 12-15 per hour), room temperature of 21.1-23.2° C. and relative humidity of 55-69%, with 12 hours light and 12 hours dark cycle were strictly maintained in the experimental room. The mice were acclimatized for a minimum period of seven days to laboratory conditions.\n(§2) The selected Swiss albino mice were randomized into four groups based on body weight, each group comprising of 6 mice. Group 2 and 3, 4 animals were treated with 150 mg/kg of cyclophosphamide through intraperitoneal route on Day 0 to initiate inducing neutropenia. On Day 3, the animals of group 2, 3 and 4, reflected the cyclophosphamide induced neutropenication when compared with Group 1 (Control) mice. On day 4, mice from Groups 2, 3 and 4 were again injected with a single dose of 100 mg/kg of cyclophosphamide. Total and differential count (neutrophils, lymphocytes, and monocytes) was recorded on day 3. The neutrophil count on day 3 was compared between groups using One-way ANOVA followed by Dunnett's test or student ‘t’ test. P<0.05 was considered statistically significant.\n(§3) Cyclophosphamide related neutropenia was induced in mice subjects using method according to Example 6. Group 1 was marked vehicle control group, Group 2 was marked cyclophosphamide control, Group 3 was marked treated with Picroside I and Group 4 was marked treated with G-CSF treated. The Picroside I composition was administered through subcutaneous route at a dose of 1 mg/mouse/day to the animals in Group 3 for 5 days respectively starting from day 5 ending at day 10. The G-CSF composition was administered through subcutaneous route at a dose of 2 μg/mouse/day to the animals in Group 4 for 5 days respectively starting from day 5 ending at day 10. On day 10, again blood was collected to count the total leucocyte count and differential count (neutrophils, lymphocytes, and monocytes) manually. The neutrophil count on day 10 was compared between groups using One-way ANOVA followed by Dunnett's test or student ‘t’ test. P<0.05 was considered statistically significant. Additionally, hepatotoxicity was observed by investigating ALT and AST levels."}, "[2]": {"system": "cyclophosphamide induced hepatotoxicity", "test": "Effect in cyclophosphamide induced hepatotoxicity (AST and ALT levels)", "format": "in vivo, Swiss albino mice", "settings": "for ALT (IU/L) / AST (IU/L): day 5 to day 10, Picroside I 1 mg/mouse/day, G-CSF 2 μg/mouse/day, cyclophosphamide treated mice", "description": "as §2, §3"}, "[3]": {"test": "Stability analysis of injectable composition of Picroside I and 2.5% PEG400 by HPLC quantitative analysis", "format": "physicochemical", "settings": "1 mg Picroside I in 2.5% PEG400; for % Result (1 month): HPLC 220 nm", "description": "The purified Picroside I prepared by the methods according to Example 1, 2, and 3 was used for the said injection composition. Injection preparation was prepared by dissolving 1 mg Picroside I in solvent, controlling pH to about 4-land then filling in ampules followed by subsequent sterilizing by conventional injection preparation method. For comparative compositions, different solvents such as methanol, 2.5% PEG400, 5% PEG400, 5% DMSO, 5% ethyl lactate, and 1.4% propylene glycol were used for Picroside I solubility.\nThe solutions were kept for sonication for 15 min and left the solutions stand at room temperature for 1 hour. HPLC was used for quantitative analysis.\nThree compositions of 1 mg Picroside I and 2.5% PEG400 were kept for sonication for 15 min and left to stand at room temperature (RT), 2-8° C. and 40° C., 75% RH for 1 month. and injected (20 μL) into HPLC at 220 nm for quantitative analysis."}, "[4]": {"system": "mice with cyclophosphamide induced neutropenia", "test": "Administration of Picroside I / Picroside II (injectable, subcutaneous) to mice with cyclophosphamide induced neutropenia", "format": "in vivo, Swiss albino mice", "settings": "for changes in body weight / clinical signs of toxicity and mortality: 1 mg/mouse/day subcutaneous for 5 days; for Total leukocyte count on Day 10 as compared to Group 2 / neutrophil count on Day 10 as compared to Group 2 / % Neutrophil (day 10) / neutrophil count compared with Group 1 (Normal control): 1 mg/mouse/day subcutaneous; for Total leukocyte count on Day 10 as compared to Group 2 / neutrophil count on Day 10 as compared to Group 2 / % Neutrophil (day 10): day 5 to day 10; for % Neutrophil (day 10) / neutrophil count compared with Group 1 (Normal control): day 10; for neutrophil count compared with Group 1 (Normal control): P<0.01; for % Neutrophil (day 3): day 3 after cyclophosphamide 150 mg/kg ip, before treatment (baseline of the group); for reversal of cyclophosphamide induced neutropenia: injection", "description": "as §1, §2\nas §3, with “Injectable composition” for “Group 1”, “prepared using the method according to Example 5.” for “marked vehicle control group, Group 2 was marked cyclophosphamide control, Group 3 was marked treated with Picroside I and Group 4 was marked treated with G-CSF treated.”, “Picroside II” for “The G-CSF”, “1 mg/mouse/day” for “2 μg/mouse/day”, “significant.” for “significant. Additionally, hepatotoxicity was observed by investigating ALT and AST levels.”"}, "[5]": {"system": "mice with cyclophosphamide induced neutropenia", "test": "Administration of Picroside I (oral tablets) to mice with cyclophosphamide induced neutropenia", "format": "in vivo, Swiss albino mice", "settings": "for Neutrophil (10^9/L) (day 10) / WBC (10^9/L) (day 10): day 5 to day 10; for Neutrophil (10^9/L) (day 3) / WBC (10^9/L) (day 3): day 3, before treatment (baseline)", "description": "as §1, §2\nCyclophosphamide related neutropenia was induced in mice subjects using method according to Example 6. Oral tablet composition was prepared using the method according to Example 4. The Picroside I composition was administered orally at a dose of 2 mg/mouse/day (2 tablets) to the animals in Group 1 and Group 2 for 5 days respectively starting from day 5 ending at day 10. For a comparative study, oral composition was administered using distilled water and PEG. Specifically, oral tablets were administered in distilled water to mice in Group 1 and in 5% PEG to mice in Group 2. On day 10, again blood was collected to count the total leucocyte count and differential count (neutrophils, lymphocytes, and monocytes) manually. The neutrophil count on day 10 was compared between groups using One-way ANOVA followed by Dunnett's test or student ‘t’ test. P<0.05 was considered statistically significant."}, "[6]": {"settings": "Picroside I 1 mg/mouse/day vs G-CSF 2 μg/mouse/day, subcutaneous"}, "[7]": {"settings": "1 mg/mouse/day subcutaneous, p<0.001"}, "[8]": {"settings": "2 mg/mouse/day oral, in distilled water (Group 1) and in 5% PEG (Group 2)"}, "[9]": {"settings": "Group 1, 2 mg/mouse/day oral (2 tablets) in distilled water"}, "[10]": {"settings": "Group 1, tablets in distilled water"}, "[11]": {"settings": "Group 2, 2 mg/mouse/day oral (2 tablets) in 5% PEG"}}, "data": [{"molecule": "O=C(/C=C/c1ccccc1)OC[C@H]1O[C@@H](O[C@@H]2OC=C[C@H]3[C@H](O)[C@@H]4O[C@]4(CO)[C@@H]23)[C@H](O)[C@@H](O)[C@@H]1O", "note": "[Picroside I]", "values": [{"measurement": "effect on cyclophosphamide induced decrease in % neutrophil", "setting": "[1]; 1 mg/mouse/day subcutaneous, day 5 to day 10", "result": "alleviation"}, {"measurement": "observed changes in % neutrophil relative to G-CSF treatment", "setting": "[1]; [6]", "result": "comparable to that of G-CSF treatment"}, {"measurement": "% Neutrophil (day 0)", "setting": "[1]", "result": 46.00, "unit": "%"}, {"measurement": "% Neutrophil (day 3)", "setting": "[1]", "result": 6.600, "unit": "%"}, {"measurement": "% Neutrophil (day 10)", "setting": "[1]; subcutaneous, day 5 to day 10", "result": 23.90, "unit": "%"}, {"measurement": "ALT levels when compared to the Group 2", "setting": "[2]; [7]", "result": "significant reversal"}, {"measurement": "AST levels when compared to the Group 2", "setting": "[2]; [7]", "result": "significant reversal"}, {"measurement": "decrease in AST and ALT relative to G-CSF treatment", "setting": "[2]; [6]", "result": "comparable"}, {"measurement": "ALT (IU/L)", "setting": "[2]; subcutaneous", "result": 37.16, "unit": "IU/L"}, {"measurement": "AST (IU/L)", "setting": "[2]; subcutaneous", "result": 50.32, "unit": "IU/L"}, {"measurement": "stability over a period of 1 month", "setting": "[3]; RT, 2-8° C. and 40° C., 75% RH", "result": "excellent stability"}, {"measurement": "% Result (1 month)", "setting": "[3]; stored at 2-8° C. for 1 month", "result": 96.59, "unit": "%"}, {"measurement": "% Result (1 month)", "setting": "[3]; stored at 40° C., 75% RH for 1 month", "result": 86.89, "unit": "%"}, {"measurement": "% Result (1 month)", "setting": "[3]; stored at RT for 1 month", "result": 102.33, "unit": "%"}, {"measurement": "changes in body weight", "setting": "[4]", "result": "no treatment related changes in body weight"}, {"measurement": "clinical signs of toxicity and mortality", "setting": "[4]", "result": "no clinical signs of toxicity and mortality"}, {"measurement": "Total leukocyte count on Day 10 as compared to Group 2", "setting": "[4]", "result": "significant increase"}, {"measurement": "neutrophil count on Day 10 as compared to Group 2", "setting": "[4]", "result": "significant increase"}, {"measurement": "% Neutrophil (day 10)", "setting": "[4]", "result": 32.67, "unit": "%"}, {"measurement": "neutrophil count compared with Group 1 (Normal control)", "setting": "[4]", "result": "increased neutrophil count significantly"}, {"measurement": "% Neutrophil (day 3)", "setting": "[4]", "result": 20.83, "unit": "%"}, {"measurement": "reversal of cyclophosphamide induced neutropenia", "setting": "[4]", "result": "significantly reverses"}, {"measurement": "changes in body weight", "setting": "[5]; 2 mg/mouse/day oral for 5 days", "result": "no treatment related changes in body weight"}, {"measurement": "clinical signs of toxicity and mortality", "setting": "[5]; 2 mg/mouse/day oral for 5 days", "result": "no clinical signs of toxicity and mortality"}, {"measurement": "Total leukocyte count on Day 10 as compared that on Day 3", "setting": "[5]; [8]", "result": "significant increase"}, {"measurement": "neutrophil count on Day 10 as compared that on Day 3", "setting": "[5]; [8]", "result": "significant increase"}, {"measurement": "Neutrophil (10^9/L) (day 10)", "setting": "[5]; [9]", "result": "1.58 10^9/L"}, {"measurement": "WBC (10^9/L) (day 10)", "setting": "[5]; [9]", "result": "9.5 10^9/L"}, {"measurement": "Neutrophil (10^9/L) (day 3)", "setting": "[5]; [10]", "result": "0.38 10^9/L"}, {"measurement": "WBC (10^9/L) (day 3)", "setting": "[5]; [10]", "result": "1.75 10^9/L"}, {"measurement": "Neutrophil (10^9/L) (day 10)", "setting": "[5]; [11]", "result": "1.03 10^9/L"}, {"measurement": "WBC (10^9/L) (day 10)", "setting": "[5]; [11]", "result": "8.9 10^9/L"}, {"measurement": "Neutrophil (10^9/L) (day 3)", "setting": "[5]; Group 2, tablets in 5% PEG", "result": "0.31 10^9/L"}, {"measurement": "WBC (10^9/L) (day 3)", "setting": "[5]; Group 2, tablets in 5% PEG", "result": "2.01 10^9/L"}, {"measurement": "reversal of cyclophosphamide induced neutropenia", "setting": "[5]; oral tablets", "result": "significantly reverses"}]}, {"molecule": "COc1cc(C(=O)O[C@H]2[C@@H]3C=CO[C@@H](O[C@@H]4O[C@H](CO)[C@@H](O)[C@H](O)[C@H]4O)[C@@H]3[C@@]3(CO)O[C@@H]23)ccc1O", "note": "[Picroside II]", "values": [{"measurement": "changes in body weight", "setting": "[4]", "result": "no treatment related changes in body weight"}, {"measurement": "clinical signs of toxicity and mortality", "setting": "[4]", "result": "no clinical signs of toxicity and mortality"}, {"measurement": "Total leukocyte count on Day 10 as compared to Group 2", "setting": "[4]", "result": "significant increase"}, {"measurement": "neutrophil count on Day 10 as compared to Group 2", "setting": "[4]", "result": "significant increase"}, {"measurement": "% Neutrophil (day 10)", "setting": "[4]", "result": 32.83, "unit": "%"}, {"measurement": "neutrophil count compared with Group 1 (Normal control)", "setting": "[4]", "result": "increased neutrophil count significantly"}, {"measurement": "% Neutrophil (day 3)", "setting": "[4]", "result": 21.83, "unit": "%"}, {"measurement": "reversal of cyclophosphamide induced neutropenia", "setting": "[4]", "result": "significantly reverses"}]}, {"molecule": "B1", "values": [{"measurement": "% Neutrophil (day 0)", "setting": "[1]", "result": 46.10, "unit": "%"}, {"measurement": "% Neutrophil (day 3)", "setting": "[1]", "result": 6.700, "unit": "%"}, {"measurement": "% Neutrophil (day 10)", "setting": "[1]; subcutaneous, day 5 to day 10", "result": 28.20, "unit": "%"}, {"measurement": "ALT (IU/L)", "setting": "[2]; subcutaneous", "result": 36.17, "unit": "IU/L"}, {"measurement": "AST (IU/L)", "setting": "[2]; subcutaneous", "result": 50.54, "unit": "IU/L"}]}]}
